Results as given in patent US7635711B2, “Glucocorticoid mimetics, methods of making them, pharmaceutical compositions, and uses thereof” (Boehringer-Ingelheim Pharmaceuticals, Inc., priority 2004, dated 2009).

Test system: glucocorticoid receptor
Test: one or more of the above assays (GR binding and GR cell assays for agonist/antagonist activity)
Type: cell-based
Details: in one or more of the above assays
Source text: Compounds found to bind to the glucocorticoid receptor may be evaluated for dissociation of transactivation and transrepression by assays cited in the Background of the Invention (C. M. Bamberger and H. M. Schulte, Eur. J. Clin. Invest., 2000, 30 (suppl. 3) 6-9) or by the assays described below.
B. Glucocorticoid Receptor Cell Assays
1. Induction of Aromatase in Fibroblasts (Cell Assay for Transactivation)
Dexamethasone, a synthetic ligand to the glucocorticoid receptor (GR), induces expression of aromatase in human foreskin fibroblast cells. The activity of aromatase is measured by the conversion of testosterone to estradiol in culture media.
Human foreskin fibroblast cells (ATCC Cat. No. CRL-2429, designation CCD112SK) are plated on 96 well plates at 50,000 cells per well 5 days before use, in Iscove's Modified Dulbecco's Media (GibcoBRL Life Technologies Cat No. 12440-053) supplemented with 10% charcoal filtered FBS (Clonetech Cat No. SH30068) and Gentamycin (GibcoBRL Life Technologies Cat. No. 15710-064). On the day of the experiment, the media in the wells is replaced with fresh media. Cells are treated with test compounds to final concentrations of 10^−5 M to 10^−8 M, and testosterone to a final concentration of 300 ng/mL. Each well has a total volume of 100 μL. Samples are made in duplicates. Control wells include: (a) wells that receive testosterone only, and (b) wells that receive testosterone plus 2 μM of dexamethasone to provide maximum induction of aromatase. Plates are incubated at 37° C. overnight (15 to 18 hours), and supernatants are harvested at the end of incubation. Estradiol in the supernatant is measured using ELISA kits for estradiol (made by ALPCO, obtained from American Laboratory Products Cat. No. 020-DR-2693) according to the manufacture's instruction. The amount of estradiol is inversely proportional to the ELISA signals in each well. The extent of aromatase induction by test compounds is expressed as a relative percentage to dexamethasone. EC50 values of test compounds are derived by non-linear curve fitting.
2. Inhibition of IL-6 Production in Fibroblasts (Cell Assay for Transrepression)
Human foreskin fibroblast cells produce IL-6 in response to stimulation by pro-inflammatory cytokine IL-1.
Human foreskin fibroblast cells (ATCC Cat. No. CRL-2429) are plated on 96 well plates at 5,000 cells per well the day before use, in Iscove's Modified Dulbecco's Media (GibcoBRL Life Technologies Cat. No. 12440-053) supplemented with 10% charcoal filtered FBS (Clonetech Cat. No. SH30068) and Gentamycin (GibcoBRL Life Technologies Cat. No. 15710-064). On the next day, media in the wells is replaced with fresh media. Cells are treated with IL-1 (rhIL-1α, R&D Systems Cat. No. 200-LA) to a final concentration of 1 ng/mL, and with test compounds to final concentrations of 10^−5 M to 10^−8 M, in a total volume of 200 μL per well. Samples are done in duplicates. […] Positive control wells receive IL-1 only and represent maximum (or 100%) amount of IL-6 production. Plates are incubated at 37° C. overnight (15 to 18 hours), and supernatants are harvested at the end of incubation. IL-6 levels in the supernatants are determined by the ELISA kits for IL-6 (MedSystems Diagnostics GmbH, Vienna, Austria, Cat. No. BMS213TEN) according to manufacture's instructions. The extent of inhibition of IL-6 by test compounds is expressed in percentage relative to positive controls. IC50 values of test compounds are derived by non-linear curve fitting.
Evaluation of agonist or antagonist activity of compounds binding to the glucocorticoid receptor may be determined by any of the assays.
3. Modulation of Tyrosine Aminotransferase (TAT) Induction in Rat Hepatoma Cells
Testing of compounds for agonist or antagonist activity in induction of tyrosine aminotransferase (TAT) in rat hepatoma cells. […]

| SMILES | activity as an agonist of the glucocorticoid receptor function |
| --- | --- |
| Cc1cc(C)c(S(=O)(=O)NC(Cc2c[nH]c3ccccc23)C(F)(F)F)c(C)c1 (stereo not shown) [2,4,6-Trimethyl-N-[2,2,2-trifluoro-1-(1H-indol-3-ylmethyl)ethyl]benzenesulfonamide] | activity as an agonist |
| Cc1cc(C)c(S(=O)(=O)NC(Cn2cc(C)c3ccccc32)C(F)(F)F)c(C)c1 (stereo not shown) [2,4,6-Trimethyl-N-[2,2,2-trifluoro-1-(3-methylindol-1-ylmethyl)ethyl]benzenesulfonamide] | activity as an agonist |
| Cc1cc(C)c(S(=O)(=O)NC(Cc2c[nH]c3cccc(F)c23)C(F)(F)F)c(C)c1 (stereo not shown) [2,4,6-Trimethyl-N-[2,2,2-trifluoro-1-(4-fluoro-1H-indol-3-ylmethyl)ethyl]benzenesulfonamide] | activity as an agonist |
| Cc1cc(C)c(S(=O)(=O)NC(Cc2c[nH]c3ccc(F)cc23)C(F)(F)F)c(C)c1 (stereo not shown) [2,4,6-Trimethyl-N-[2,2,2-trifluoro-1-(5-fluoro-1H-indol-3-ylmethyl)ethyl]benzenesulfonamide] | activity as an agonist |
| Cc1cc(C)c(S(=O)(=O)NC(Cc2c[nH]c3ccc(C)cc23)C(F)(F)F)c(C)c1 (stereo not shown) [2,4,6-Trimethyl-N-[2,2,2-trifluoro-1-(5-methyl-1H-indol-3-ylmethyl)ethyl]benzenesulfonamide] | activity as an agonist |
| Cc1cc(C)c(S(=O)(=O)NC(Cc2c[nH]c3cc(F)ccc23)C(F)(F)F)c(C)c1 (stereo not shown) [2,4,6-Trimethyl-N-[2,2,2-trifluoro-1-(6-fluoro-1H-indol-3-ylmethyl)ethyl]benzenesulfonamide] | activity as an agonist |
| Cc1cc(C)c(S(=O)(=O)NC(Cc2c[nH]c3c(F)cccc23)C(F)(F)F)c(C)c1 (stereo not shown) [2,4,6-Trimethyl-N-[2,2,2-trifluoro-1-(7-fluoro-1H-indol-3-ylmethyl)ethyl]benzenesulfonamide] | activity as an agonist |
| Nc1cc(Cl)cc(Cl)c1S(=O)(=O)NC(Cc1c[nH]c2ccccc12)C(F)(F)F (stereo not shown) [2-Amino-4,6-dichloro-N-[2,2,2-trifluoro-1-(1H-indol-3-ylmethyl)ethyl]benzenesulfonamide] | activity as an agonist |
| Cc1ccc2[nH]cc(CC(NS(=O)(=O)c3c(N)cc(Cl)cc3Cl)C(F)(F)F)c2c1 (stereo not shown) [2-Amino-4,6-dichloro-N-[2,2,2-trifluoro-1-(5-methyl-1H-indol-3-ylmethyl)ethyl]benzenesulfonamide] | activity as an agonist |
| Cc1cc(C)c(S(=O)(=O)NC(Cc2c[nH]c3ccccc23)C(F)(F)F)c(N)c1 (stereo not shown) [2-Amino-4,6-dimethyl-N-[2,2,2-trifluoro-1-(1H-indol-3-ylmethyl)ethyl]benzenesulfonamide] | activity as an agonist |
| Cc1cc(C)c(S(=O)(=O)NC(Cc2c[nH]c3c(C#N)cccc23)C(F)(F)F)c(C)c1 (stereo not shown) [N-[1-(7-Cyano-1H-indol-3-ylmethyl)-2,2,2-trifluoroethyl]-2,4,6-trimethylbenzenesulfonamide] | activity as an agonist |
| Cc1cc(C)c(S(=O)(=O)NC(Cc2c[nH]c3c(C#N)cc(C)cc23)C(F)(F)F)c(C)c1 (stereo not shown) [N-[1-(7-Cyano-5-methyl-1H-indol-3-ylmethyl)-2,2,2-trifluoroethyl]-2,4,6-trimethylbenzenesulfonamide] | activity as an agonist |

Test system: not given
Test: not given
Details: not given

| SMILES | melting point [°C] |
| --- | --- |
| O=S(=O)(NC(Cc1c[nH]c2ccccc12)C(F)(F)F)c1ccccc1 (stereo not shown) | 121 to 123 |
